Results: US12378224B2 (Dong-A Socio Holdings Co., Ltd., priority 2016, dated 2025)
pIC50: −log10 of the molar value.

target: human MER (528-end) (Homo sapiens (Human), UniProt Q12866); test: HTRF Kinase Activity Biochemical Assay (KinEASE-TK); conditions: 10 uM ATP
Description: For the SAR (structure-activity relationship) and compound screening, HTRF (Homogeneous Time Resolved Fluorescence) kinase activity assay was employed for all MER, AXL and TYRO3 kinases using Cisbio HTRF® KinEASE™-TK kit (Cisbio, USA). The kit includes biotin-labeled TK substrate, streptavidin-XL665, Eu3+-cryptate-labeled TK antibody and HTRF® Detection buffer. There are two main steps in the kinase assay: kinase reaction and detection of phosphorylated substrate. The reaction was carried out in white low volume 384-well plate (Corning, USA) with 25 nL compound in dimethyl sulfoxide in each well. […] Then the reaction was stopped after 1 hour incubation at room temperature by adding 5 uL of HTRF® Detection buffer which also contains 0.375 nM Eu3+-cryptate-labeled TK antibody and 0.062 uM streptavidin-XL665(SA-XL665) to allow for detection of the phosphorylated peptide product. After 1 h incubation at room temperature, the fluorescence intensity was measured with Envision™ plate reader (PerkinElmer, USA). Upon excitation at 340 nm by UV, the energy from Eu3+ donor of the antibody is transferred to the FRET acceptor XL665, and […] emits light at 665 nm. The level of kinase activity was quantified by the HTRF ratio that calculated from the intensity of emission at 665 nm and emission at 620 nm (fluorescence intensity @ 665 nm/fluorescence intensity @ 620 nm×10,000). The recombinant protein of human MER (528-end) was purchased from Carnabio, Japan. The recombinant human AXL (473-end) and TYRO3 (455-end) were purchased from SignalChem, Canada.

Chain of human MER (528-end) (Q12866 528-999 limits assumed): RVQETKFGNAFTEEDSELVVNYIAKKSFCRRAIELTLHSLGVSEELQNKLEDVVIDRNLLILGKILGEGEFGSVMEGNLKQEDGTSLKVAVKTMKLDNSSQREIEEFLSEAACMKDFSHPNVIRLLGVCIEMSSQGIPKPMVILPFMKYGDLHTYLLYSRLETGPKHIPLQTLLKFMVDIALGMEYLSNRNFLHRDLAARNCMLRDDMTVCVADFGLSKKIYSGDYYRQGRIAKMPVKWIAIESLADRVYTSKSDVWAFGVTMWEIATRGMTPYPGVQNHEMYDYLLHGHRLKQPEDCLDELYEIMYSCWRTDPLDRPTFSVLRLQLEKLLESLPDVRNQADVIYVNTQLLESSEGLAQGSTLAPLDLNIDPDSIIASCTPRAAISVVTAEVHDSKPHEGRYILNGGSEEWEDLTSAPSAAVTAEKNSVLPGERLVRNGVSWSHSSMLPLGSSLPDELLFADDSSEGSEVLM

Molecule	pIC50
2-amino-N—((R)-1-(3-(((R)-2-(hydroxymethyl)pyrrolidin-1-yl)methyl)-[1,1′-biphenyl]-3-carbonyl)pyrrolidin-3-yl)-5-(1-methyl-1H-pyrazol-4-yl)nicotinamide [Example 462]	< 6.00
Cn1cc(-c2cnc(N)c(C(=O)N[C@@H]3CCN(C(=O)Nc4cccc(F)c4)C3)c2)cn1 [Example 2, (R)-2-amino-N-(1-((3-fluorophenyl)carbamoyl)pyrrolidin-3-yl)-5-(1-methyl-1H-pyrazol-4-yl)nicotinamide]	< 6.00
Cn1cc(-c2cnc(N)c(C(=O)N[C@@H]3CCN(C(=O)Nc4ccc(F)c(F)c4)C3)c2)cn1 [Example 3, (R)-2-amino-N-(1-((3,4-difluorophenyl)carbamoyl)pyrrolidin-3-yl)-5-(1-methyl-1H-pyrazol-4-yl)nicotinamide]	< 6.00
Cc1cc(C)cc(NC(=O)N2CC[C@@H](NC(=O)c3cc(-c4cnn(C)c4)cnc3N)C2)c1 [Example 4, (R)-2-amino-N-(1-((3,5-dimethylphenyl)carbamoyl)pyrrolidin-3-yl)-5-(1-methyl-1H-pyrazol-4-yl)nicotinamide]	< 6.00
Cn1cc(-c2cnc(N)c(C(=O)N[C@@H]3CCN(C(=O)Nc4cc(C(F)(F)F)cc(C(F)(F)F)c4)C3)c2)cn1 [Example 5, (R)-2-amino-N-(1-((3,5-bis(trifluoromethyl)phenyl)carbamoyl)pyrrolidin-3-yl)-5-(1-methyl-1H-pyrazol-4-yl)nicotinamide]	< 6.00
Cn1cc(-c2cnc(N)c(C(=O)N[C@@H]3CCN(C(=O)Nc4ccc(C(F)(F)F)cc4)C3)c2)cn1 [Example 6, (R)-2-amino-5-(1-methyl-1H-pyrazol-4-yl)-N-(1-((4-(trifluoromethyl)phenyl)carbamoyl)pyrrolidin-3-yl)nicotinamide]	< 6.00
CC(C)NC(=O)N1CC[C@@H](NC(=O)c2cc(-c3cnn(C)c3)cnc2N)C1 [Example 8, (R)-2-amino-N-(1-(isopropylcarbamoyl)pyrrolidin-3-yl)-5-(1-methyl-1H-pyrazol-4-yl)nicotinamide]	< 6.00
Cn1cc(-c2cnc(N)c(C(=O)N[C@@H]3CCN(C(=O)Nc4ccn(C)n4)C3)c2)cn1 [Example 12, (R)-2-amino-N-(1-((1-methyl-1H-pyrazol-3-yl)carbamoyl)pyrrolidin-3-yl)-5-(1-methyl-1H-pyrazol-4-yl)nicotinamide]	< 6.00
Cn1cc(-c2cnc(N)c(C(=O)N[C@@H]3CCN(C(=O)Nc4cccc(Cl)c4)C3)c2)cn1 [Example 14, (R)-2-amino-N-(1-((3-chlorophenyl)carbamoyl)pyrrolidin-3-yl)-5-(1-methyl-1H-pyrazol-4-yl)nicotinamide]	< 6.00
CC(C)Oc1cccc(NC(=O)N2CC[C@@H](NC(=O)c3cc(-c4cnn(C)c4)cnc3N)C2)c1 [Example 16, (R)-2-amino-N-(1-((3-isopropoxyphenyl)carbamoyl)pyrrolidin-3-yl)-5-(1-methyl-1H-pyrazol-4-yl)nicotinamide]	< 6.00
Cn1cc(-c2cnc(N)c(C(=O)N[C@@H]3CCN(C(=O)Nc4cccc(Oc5ccccc5)c4)C3)c2)cn1 [Example 17, (R)-2-amino-5-(1-methyl-1H-pyrazol-4-yl)-N-(1-((3-phenoxyphenyl)carbamoyl)pyrrolidin-3-yl)nicotinamide]	7.00 to 8.00
Cn1cc(-c2cnc(N)c(C(=O)N[C@@H]3CCN(C(=O)Nc4ccccc4Oc4ccccc4)C3)c2)cn1 [Example 18, (R)-2-amino-5-(1-methyl-1H-pyrazol-4-yl)-N-(1-((2-phenoxyphenyl)carbamoyl)pyrrolidin-3-yl)nicotinamide]	< 6.00
CCc1cccc(NC(=O)N2CC[C@@H](NC(=O)c3cc(-c4cnn(C)c4)cnc3N)C2)c1 [Example 19, (R)-2-amino-N-(1-((3-ethylphenyl)carbamoyl)pyrrolidin-3-yl)-5-(1-methyl-1H-pyrazol-4-yl)nicotinamide]	< 6.00
Cn1cc(-c2cnc(N)c(C(=O)N[C@@H]3CCN(C(=O)Nc4ccccc4Cl)C3)c2)cn1 [Example 21, (R)-2-amino-N-(1-((2-chlorophenyl)carbamoyl)pyrrolidin-3-yl)-5-(1-methyl-1H-pyrazol-4-yl)nicotinamide]	< 6.00
Cn1cc(-c2cncc(C(=O)N[C@@H]3CCN(C(=O)Nc4cc(Cl)cc(Cl)c4)C3)c2)cn1 [Example 22, (R)—N-(1-((3,5-dichlorophenyl)carbamoyl)pyrrolidin-3-yl)-5-(1-methyl-1H-pyrazol-4-yl)nicotinamide]	< 6.00
Cn1cc(-c2cnc(N)c(C(=O)N[C@@H]3CCN(C(=O)Nc4cccc(-c5ccccc5)c4)C3)c2)cn1 [Example 23, (R)—N-(1-([1,1′-biphenyl]-3-ylcarbamoyl)pyrrolidin-3-yl)-2-amino-5-(1-methyl-1H-pyrazol-4-yl)nicotinamide]	6.00 to 7.00
Cn1cc(-c2cnc(N)c(C(=O)N[C@@H]3CCN(C(=O)Nc4ccc(Br)cc4)C3)c2)cn1 [Example 25, (R)-2-amino-N-(1-((4-bromophenyl)carbamoyl)pyrrolidin-3-yl)-5-(1-methyl-1H-pyrazol-4-yl)nicotinamide]	< 6.00
Cn1cc(-c2cnc(N)c(C(=O)N[C@@H]3CCN(C(=O)Nc4cccc(CN5CCOCC5)c4)C3)c2)cn1 [Example 26, (R)-2-amino-5-(1-methyl-1H-pyrazol-4-yl)-N-(1-((3-(morpholinomethyl)phenyl)carbamoyl)pyrrolidin-3-yl)nicotinamide]	< 6.00
Cn1cc(-c2cnc(N)c(C(=O)N[C@H]3CCN(C(=O)Nc4ccccc4)C3)c2)cn1 [Example 27, (S)-2-amino-5-(1-methyl-1H-pyrazol-4-yl)-N-(1-(phenylcarbamoyl)pyrrolidin-3-yl)nicotinamide]	< 6.00
Cn1cc(-c2cnc(N)c(C(=O)N[C@@H]3CCN(C(=O)N4CCc5c(N)cccc5C4)C3)c2)cn1 [Example 28, (R)-2-amino-N-(1-(5-amino-1,2,3,4-tetrahydroisoquinoline-2-carbonyl)pyrrolidin-3-yl)-5-(1-methyl-1H-pyrazol-4-yl)nicotinamide]	< 6.00
Cn1cc(-c2cnc(N)c(C(=O)N[C@@H]3CCN(C(=O)N4CCc5cccc(Br)c5C4)C3)c2)cn1 [Example 29, (R)-2-amino-N-(1-(8-bromo-1,2,3,4-tetrahydroisoquinoline-2-carbonyl)pyrrolidin-3-yl)-5-(1-methyl-1H-pyrazol-4-yl)nicotinamide]	< 6.00
Cn1cc(-c2cnc(N)c(C(=O)N[C@@H]3CCN(C(=O)NC4CCCCC4)C3)c2)cn1 [Example 30, (R)-2-amino-N-(1-(cyclohexylcarbamoyl)pyrrolidin-3-yl)-5-(1-methyl-1H-pyrazol-4-yl)nicotinamide]	6.00 to 7.00
Cn1cc(-c2cnc(N)c(C(=O)N[C@@H]3CCN(C(=O)N[C@@H]4CCCC[C@@H]4O)C3)c2)cn1 [Example 31, 2-amino-N—((R)-1-(((1R,2S)-2-hydroxycyclohexyl)carbamoyl)pyrrolidin-3-yl)-5-(1-methyl-1H-pyrazol-4-yl)nicotinamide]	< 6.00
Cn1cc(-c2cnc(N)c(C(=O)N[C@@H]3CCN(C(=O)N[C@@H]4CCCC[C@H]4O)C3)c2)cn1 [Example 32, 2-amino-N—((R)-1-(((1R,2R)-2-hydroxycyclohexyl)carbamoyl)pyrrolidin-3-yl)-5-(1-methyl-1H-pyrazol-4-yl)nicotinamide]	< 6.00
Cn1cc(-c2cnc(N)c(C(=O)N[C@@H]3CCN(C(=O)Nc4cc(Cl)cc(Cl)c4)C3)c2)cn1 [Example 34, (R)-2-amino-N-(1-((3,5-dichlorophenyl)carbamoyl)pyrrolidin-3-yl)-5-(1-methyl-1H-pyrazol-4-yl)nicotinamide]	6.00 to 7.00
Nc1ncc(-c2ccc(CN3CCOCC3)cc2)cc1C(=O)N[C@@H]1CCN(C(=O)Nc2cccc(-c3ccccc3)c2)C1 [Example 38, (R)—N-(1-([1,1′-biphenyl]-3-ylcarbamoyl)pyrrolidin-3-yl)-2-amino-5-(4-(morpholinomethyl)phenyl)nicotinamide]	7.00 to 8.00
Cn1cc(-c2cnc(N)c(C(=O)N[C@@H]3CCN(C(=O)N[C@H]4CCC[C@@H]4OCc4ccccc4)C3)c2)cn1 [Example 40, 2-amino-N—((R)-1-(((1S,2S)-2-(benzyloxy)cyclopentyl)carbamoyl)pyrrolidin-3-yl)-5-(1-methyl-1H-pyrazol-4-yl)nicotinamide]	< 6.00
Cn1cc(-c2cnc(N)c(C(=O)N[C@@H]3CCN(C(=O)NC4CCC(OCc5ccccc5)C4)C3)c2)cn1 (stereo partly drawn) [Example 41, 2-amino-N-((3R)-1-((3-(benzyloxy)cyclopentyl)carbamoyl)pyrrolidin-3-yl)-5-(1-methyl-1H-pyrazol-4-yl)nicotinamide]	< 6.00
Cn1cc(-c2cnc(N)c(C(=O)N[C@@H]3CCN(C(=S)Nc4ccc(F)cc4)C3)c2)cn1 [Example 42, (R)-2-amino-N-(1-((4-fluorophenyl)carbamothioyl)pyrrolidin-3-yl)-5-(1-methyl-1H-pyrazol-4-yl)nicotinamide]	< 6.00
Cn1cc(-c2cnc(N)c(C(=O)N[C@@H]3CCN(C(=S)NCc4ccccc4)C3)c2)cn1 [Example 43, (R)-2-amino-N-(1-(benzylcarbamothioyl)pyrrolidin-3-yl)-5-(1-methyl-1H-pyrazol-4-yl)nicotinamide]	< 6.00
